Data from patent US20250073184A1, “CANNABIGEROQUINONE COMPOUNDS, COMPOSITIONS INCLUDING SUCH COMPOUNDS, AND USES OF SUCH COMPOUNDS AND COMPOSITIONS” (Juva Life, Inc., priority 2021, published 2025).

Columns and labels:
[1] = target: T1, cannabinoid receptor 1 (CNR1) (Homo sapiens, UniProt P21554); experiment: CB1 receptor agonist assay (cAMP Hunter eXpress, CNR1 CHO-K1 cells); type: cell-based; settings: agonist mode, Forskolin-stimulated cAMP
T1 construct: host or cells: CHO-K1
Procedure: (§1) The assays were performed in cAMP Hunter eXpress cells engineered to overexpress naturally Gi/Go-coupled wildtype cannabinoid receptor 1 (CNR1) or cannabinoid receptor 2 (CNR2) in CHO-K1 cell type. In these cells, CB1 and/or […] agonists inhibit production of intracellular cAMP in response to stimulation with Forskolin. cAMP levels are determined using luminogenic detection reagents provided with the Hunter eXpress cAMP detection kit.
(§2) • Assay ready CNR1 CHO-K1 cells were obtained from Eurofins/Discover X, cat #95-0071E2 • Assay ready CNR2 CHO-K1 cells were obtained from Eurofins/Discover X, cat #95-0183E2 • Hunter eXpress cAMP detection kit was also from Discover X. The kit includes all cAMP detection reagents, Forskolin, complete cell plating medium and cell assay buffer.
The Assay-Ready CNR1 CHO-K1 or CNR2 CHO-K1 cells were thawed and re-suspended in pre-warmed Assay Complete plating medium and inoculated into 96 well plate at a density of 30,000 cells in 100 μL. The plates with cells were incubated for 24 h at 37° C. in 5% CO2. […] The cells were stimulated with the Forskolin/compound buffer for 30 min. […] The plate was read on Biotek Synergy Neo2 reader in luminescent mode. […] Relative luminescence units (RLUs) were plotted against compound concentration to determine apparent EC50 values of the agonist compounds.

[2] = target: T2, cannabinoid receptor 2 (CNR2) (Homo sapiens, UniProt P34972); experiment: CB2 receptor agonist assay (cAMP Hunter eXpress, CNR2 CHO-K1 cells); type: cell-based
T2 construct: host or cells: CHO-K1
T2 sequence (P34972 whole entry): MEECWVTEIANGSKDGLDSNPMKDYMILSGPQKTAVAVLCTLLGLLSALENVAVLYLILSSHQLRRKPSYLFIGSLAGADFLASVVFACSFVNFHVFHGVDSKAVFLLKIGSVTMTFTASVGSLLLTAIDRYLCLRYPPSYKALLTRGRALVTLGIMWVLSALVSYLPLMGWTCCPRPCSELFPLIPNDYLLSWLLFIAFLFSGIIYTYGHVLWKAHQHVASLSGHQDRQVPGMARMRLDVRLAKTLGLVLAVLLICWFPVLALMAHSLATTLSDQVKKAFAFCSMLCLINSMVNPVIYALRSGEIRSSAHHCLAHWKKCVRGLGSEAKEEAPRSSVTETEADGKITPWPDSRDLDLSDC
Procedure: as §1, §2
The Assay-Ready CNR1 CHO-K1 or CNR2 CHO-K1 cells were thawed and re-suspended in pre-warmed Assay Complete plating medium and inoculated into 96 well plate at a density of 30,000 cells in 100 μL. The plates with cells were incubated for 24 h at 37° C. in 5% CO2. […] The cells were stimulated with the Forskolin/compound buffer for 30 min. After stimulation, 15 μL of cAMP antibody reagent and 60 μL of cAMP working detection solution were added to the cells and, the cells were incubated for 1 h at room temperature. After 1 h incubation, 60 μL of cAMP Solution A was added to the wells and the plate was incubated for 3 h at room temperature. The plate was read on Biotek Synergy Neo2 reader in luminescent mode. CB1 and CB2 agonists should reduce cAMP production in response to Forskilin. Relative luminescence units (RLUs) were plotted against compound concentration to determine apparent EC50 values of the agonist compounds.

[3] = test system: SK-MEL-28 melanoma cell line; experiment: SK-MEL-28 cell line toxicity (Cell titer Glo viability); type: cell-based; settings: SK-MEL-28, 72 h
Procedure: (§3) Culture medium were purchased from ATCC, USA.
• General cell culture reagents and plastic. • 384-Well Flat white Poly-styrene TC-Treated Microplates (Corning). • 384 well poly-propylene plates (acoustic grade, Labcyte) for compound dilution. • Cell titer Glo luminescent Cell Viability reagent (Cat #G7571, Promega).
(§4) 90 nL DMSO is added to control wells. […] Luminescence was then recorded using Synergy Neo2Multi-mode Reader.

[4] = test system: PC3 prostate adenocarcenoma cell line; experiment: PC3 cell line toxicity (Cell titer Glo viability); type: cell-based; settings: PC3, 72 h
Procedure: as §4, §3

[5] = test system: HL-60 acute promyelocytic leukemia cell line; experiment: HL-60 cell line toxicity (Cell titer Glo viability); settings: HL-60, 72 h
Procedure: The half maximal inhibition concentration (IC50) for each compound was determined by harvesting cells during the logarithmic growth period and then counting cell number using hemocytometer. […] Then, using a Biomek FX, test articles were serially diluted (10 mM top, 3× dilution intervals) along with a reference inhibitor (1 mM top, 3× dilution intervals) in acoustic grade Labcyte plate. Then, using an acoustic dispenser (Labcyte550), compounds were added as serially diluted to plate with cells: 90 nL of serially diluted compounds per well. 90 nL DMSO is added to control wells. Test plates were incubated for 72 h in the humidified incubator at 37° C. with 5% CO2. 25 μL of reconstituted Cell titer Glo reagent was added to each well. Each test plate was then incubated for 20 min at room temperature. Luminescence was then recorded using Synergy Neo2Multi-mode Reader.
In order to calculate intersect IC50, a dose-response curve was fitted using nonlinear regression model with a sigmoidal dose response.
The formula for calculating surviving rate is shown below, and the intersect IC50 was calculated according to the dose-response curve generated by the software:
The compounds of interest were assessed cell viability in the HL-60 acute promyelocytic leukemia cell line (ATCC® CCL-240). […] Culture medium were purchased from ATCC, USA.

T1 sequence (P21554 whole entry): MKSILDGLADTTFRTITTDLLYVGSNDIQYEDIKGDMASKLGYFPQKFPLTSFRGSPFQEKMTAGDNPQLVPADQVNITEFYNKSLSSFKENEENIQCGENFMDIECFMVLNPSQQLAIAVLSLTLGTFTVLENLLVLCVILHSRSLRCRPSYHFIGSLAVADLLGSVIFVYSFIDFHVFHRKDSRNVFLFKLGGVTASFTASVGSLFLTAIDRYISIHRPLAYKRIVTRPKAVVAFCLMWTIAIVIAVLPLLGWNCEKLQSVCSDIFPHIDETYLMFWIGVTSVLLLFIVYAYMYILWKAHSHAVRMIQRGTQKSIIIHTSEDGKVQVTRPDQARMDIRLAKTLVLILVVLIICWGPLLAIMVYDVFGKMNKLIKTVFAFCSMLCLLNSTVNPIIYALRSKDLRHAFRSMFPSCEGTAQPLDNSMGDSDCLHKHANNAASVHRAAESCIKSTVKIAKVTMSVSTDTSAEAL

CCCCCc1cc(O)c2c(c1)OC(C)(C)C1CCC(CO)=CC21 (stereo not drawn) [11-hydroxy-THC]
IC50 [1]: 1 nM
IC50 ([2]; agonist mode, Forskolin-stimulated cAMP, CNR2 CHO-K1 cells): 51 nM
Selectivity for CB2 over CB1 (fold) ([2]; ratio of agonist IC50 values): 0.02 fold

CN[C@@H]1C[C@H]2O[C@@](C)([C@@H]1OC)n1c3ccccc3c3c4c(c5c6ccccc6n2c5c31)C(=O)NC4 [Staurosporine, staurosporine, reference compound]
IC50 ([3]; Homo sapiens): ~210 nM
Cell Viability (%) ([3]; 0.041 uM): 70.0%
Cell Viability (%) ([3]; 0.12 uM): 53.9%
Cell Viability (%) ([3]; 0.37 uM): 41.1%
Cell Viability (%) ([3]; 1.1 uM): 33.0%
Cell Viability (%) ([3]; 3.3 uM): 17.3%
Cell Viability (%) ([3]; 10 uM): 8.55%
Cell Viability (%) ([3]; 30 uM): 8.85%
IC50 ([4]; Homo sapiens, PC-3): ~4 nM
Cell Viability (%) ([4]; 0.0015 uM): 67.1%
Cell Viability (%) ([4]; 0.0046 uM): 43.2%
Cell Viability (%) ([4]; 0.014 uM): 34.5%
Cell Viability (%) ([4]; 0.041 uM): 12.7%
Cell Viability (%) ([4]; 0.12 uM): 10.3%
Cell Viability (%) ([4]; 0.37 uM): 9.5%
Cell Viability (%) ([4]; 1.1 uM): 8.4%
Cell Viability (%) ([4]; 3.3 uM): 8.1%
Cell Viability (%) ([4]; 10 uM): 6.8%
Cell Viability (%) ([4]; 30 uM): 7.1%
Cell Viability (%) ([5]; 0.014 uM): 66.6%
Cell Viability (%) ([5]; 0.041 uM): 36.3%
Cell Viability (%) ([5]; 0.12 uM): 27.7%
Cell Viability (%) ([5]; 0.37 uM): 18.7%
Cell Viability (%) ([5]; 1.1 uM): 13.9%
Cell Viability (%) ([5]; 3.3 uM): 11.7%
Cell Viability (%) ([5]; 10 uM): 10.4%
Cell Viability (%) ([5]; 30 uM): 9.6%
